Source: patent US4455290A, “Inhibition of fibrin polymerization by a peptide isolated from fibrin Fragment D1” (Research Corporation, priority 1981, dated 1984)
Peptide text beside a SMILES is read from it.

Tests used:
fibrinogen = target: T1, fibrinogen (Homo sapiens, UniProt P02671+P02675+P02679); test: Equilibrium binding of 125-I D1 Peptide, fibrinogen
T1 construct: purchased Grade L
T1 sequence (P02671 20-644 isoform P02671-2 limits assumed): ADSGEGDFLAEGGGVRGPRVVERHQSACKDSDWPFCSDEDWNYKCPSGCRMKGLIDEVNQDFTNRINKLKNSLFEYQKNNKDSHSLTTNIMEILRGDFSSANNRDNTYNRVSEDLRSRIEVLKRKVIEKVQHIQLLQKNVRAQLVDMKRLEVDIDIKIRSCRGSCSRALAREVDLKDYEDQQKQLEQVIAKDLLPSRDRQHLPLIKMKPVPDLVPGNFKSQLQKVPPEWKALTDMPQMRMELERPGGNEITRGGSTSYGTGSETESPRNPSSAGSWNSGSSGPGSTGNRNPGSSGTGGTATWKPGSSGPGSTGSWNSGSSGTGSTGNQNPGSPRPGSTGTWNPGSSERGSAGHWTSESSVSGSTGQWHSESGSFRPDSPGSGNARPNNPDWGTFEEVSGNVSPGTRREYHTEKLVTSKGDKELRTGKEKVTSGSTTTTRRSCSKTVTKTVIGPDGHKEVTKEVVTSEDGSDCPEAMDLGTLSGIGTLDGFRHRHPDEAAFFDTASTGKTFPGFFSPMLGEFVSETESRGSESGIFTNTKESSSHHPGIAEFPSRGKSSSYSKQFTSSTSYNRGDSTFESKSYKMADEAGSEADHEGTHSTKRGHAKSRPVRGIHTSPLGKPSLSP
T1 sequence (P02675 31-491): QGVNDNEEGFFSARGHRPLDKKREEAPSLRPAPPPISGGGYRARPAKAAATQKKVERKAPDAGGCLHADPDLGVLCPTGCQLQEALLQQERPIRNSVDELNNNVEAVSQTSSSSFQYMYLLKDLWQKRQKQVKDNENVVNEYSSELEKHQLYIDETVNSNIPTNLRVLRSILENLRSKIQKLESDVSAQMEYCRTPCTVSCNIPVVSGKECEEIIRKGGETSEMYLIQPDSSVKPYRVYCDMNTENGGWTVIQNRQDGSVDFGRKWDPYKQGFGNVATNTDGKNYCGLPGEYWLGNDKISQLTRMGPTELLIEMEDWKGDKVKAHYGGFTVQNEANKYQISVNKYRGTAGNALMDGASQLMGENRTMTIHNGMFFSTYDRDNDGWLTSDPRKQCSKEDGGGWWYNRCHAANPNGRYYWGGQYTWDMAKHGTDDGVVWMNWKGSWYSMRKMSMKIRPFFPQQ
T1 sequence (P02679 27-437 isoform P02679-2 limits assumed): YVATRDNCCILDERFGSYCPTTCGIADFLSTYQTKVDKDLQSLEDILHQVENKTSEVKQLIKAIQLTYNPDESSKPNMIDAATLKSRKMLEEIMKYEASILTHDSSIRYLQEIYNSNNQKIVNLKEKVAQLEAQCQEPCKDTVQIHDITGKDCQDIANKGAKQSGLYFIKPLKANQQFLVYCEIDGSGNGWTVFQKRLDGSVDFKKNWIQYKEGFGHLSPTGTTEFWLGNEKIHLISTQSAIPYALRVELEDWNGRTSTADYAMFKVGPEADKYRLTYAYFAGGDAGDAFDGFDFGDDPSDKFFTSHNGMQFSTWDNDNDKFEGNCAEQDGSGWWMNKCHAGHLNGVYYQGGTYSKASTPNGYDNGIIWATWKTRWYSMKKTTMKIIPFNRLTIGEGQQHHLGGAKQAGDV
Source text: (§1) Acta 133, 376-379 (1979).

thrombin fibrin monomer = target: T2, thrombin fibrin monomer (Homo sapiens, UniProt P02671+P02675+P02679); test: Sephadex gel equilibrium binding, thrombin fibrin monomer; conditions: 15 experiments, mean and standard deviation
T2 construct: Thrombin cleaves the bonds Aα16 Arg-17 Gly and Bβ14 Arg-15 Gly, releasing two molecules of fibrinopeptide A and two molecules of fibrinopeptide B; made in house; host or cells: not recombinant: made from fibrinogen by treatment with thrombin
T2 sequence (P02671 36-629 isoform P02671-2): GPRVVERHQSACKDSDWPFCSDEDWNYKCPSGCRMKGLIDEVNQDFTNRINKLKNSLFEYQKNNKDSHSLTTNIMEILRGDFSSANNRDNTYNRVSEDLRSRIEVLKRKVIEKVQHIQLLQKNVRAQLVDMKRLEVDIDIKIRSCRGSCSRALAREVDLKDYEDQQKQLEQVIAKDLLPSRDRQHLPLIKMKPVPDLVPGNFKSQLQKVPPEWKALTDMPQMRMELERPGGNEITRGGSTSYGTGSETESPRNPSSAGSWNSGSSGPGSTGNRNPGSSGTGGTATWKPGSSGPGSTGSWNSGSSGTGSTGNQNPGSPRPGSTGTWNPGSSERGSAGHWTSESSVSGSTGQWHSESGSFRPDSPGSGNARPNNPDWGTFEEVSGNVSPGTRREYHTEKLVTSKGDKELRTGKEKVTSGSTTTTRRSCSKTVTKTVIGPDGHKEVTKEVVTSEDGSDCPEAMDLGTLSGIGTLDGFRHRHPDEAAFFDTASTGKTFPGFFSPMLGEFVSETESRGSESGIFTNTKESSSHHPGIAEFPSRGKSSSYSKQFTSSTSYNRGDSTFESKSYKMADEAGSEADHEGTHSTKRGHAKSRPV
T2 sequence (P02675 45-491): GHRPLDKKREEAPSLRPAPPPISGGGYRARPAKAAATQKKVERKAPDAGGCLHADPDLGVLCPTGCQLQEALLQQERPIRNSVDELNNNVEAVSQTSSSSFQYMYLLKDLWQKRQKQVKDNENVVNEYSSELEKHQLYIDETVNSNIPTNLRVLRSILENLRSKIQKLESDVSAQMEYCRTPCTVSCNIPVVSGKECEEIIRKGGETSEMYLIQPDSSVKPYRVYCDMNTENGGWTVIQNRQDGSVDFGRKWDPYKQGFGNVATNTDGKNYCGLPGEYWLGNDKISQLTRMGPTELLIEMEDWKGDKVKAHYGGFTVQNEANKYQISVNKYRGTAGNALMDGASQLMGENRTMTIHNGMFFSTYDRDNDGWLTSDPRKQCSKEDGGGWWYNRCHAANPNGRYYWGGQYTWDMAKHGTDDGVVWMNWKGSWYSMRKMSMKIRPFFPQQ
T2 sequence (P02679 27-437 isoform P02679-2): T1 sequence (P02679 27-437 isoform P02679-2 limits assumed)
Description: as §1
The purification of NDSK involves incubation of fibrinogen in cyanogen bromide in the presence of 70% formic acid. This treatment may alter the binding sites. Therefore, an attempt was made to reproduce the data using fibrin monomer instead of thrombin-treated NDSK. A major difficulty, the self-polymerization of fibrin monomer, was overcome by using high molar ratios of D1 Peptide to fibrin monomer. However, in this situation the concentration of D1 Peptide could be varied only over a small range of concentrations. D1 Peptide was added to the Sephadex gel equilibrium system and incubated for 10 min., then soluble fibrin monomer was added in a molar excess of D1 Peptide to fibrin monomer of 100-1000 fold. Under these conditions the lag time in the fibrin monomer polymerization was more than 30 min.
In experiments using thrombin fibrin monomer the number of binding sites for D1 Peptide was 1.82±0.26 (15 experiments, mean and standard deviation). For batroxobin fibrin monomer the number of binding sites was 1.91±0.24 (17 experiments, mean and standard deviation).

thrombin time = test: Thrombin time test; conditions: stated as 'could be caused'; no experiment described

CC[C@H](C)[C@H](NC(=O)[C@H](CCCCN)NC(=O)[C@H](CCSC)NC(=O)[C@@H](NC(=O)[C@@H](NC(=O)[C@H](CCCCN)NC(=O)[C@H](CCCCN)NC(=O)[C@H](CCSC)NC(=O)[C@H](CO)NC(=O)[C@H](Cc1ccc(O)cc1)NC(=O)[C@H](Cc1c[nH]c2ccccc12)NC(=O)[C@H](CCCNC(=N)N)NC(=O)[C@@H](N)[C@@H](C)O)[C@@H](C)O)[C@@H](C)O)C(=O)N[C@H](C(=O)N1CCC[C@H]1C(=O)N[C@@H](Cc1ccccc1)C(=O)N[C@@H](CC(N)=O)C(=O)N[C@@H](CCCNC(=N)N)C(=O)N[C@@H](CC(C)C)C(=O)N[C@H](C(=O)N[C@H](C(=O)NCC(=O)N[C@@H](CCC(=O)O)C(=O)NCC(=O)N[C@@H](CCC(N)=O)C(=O)N[C@@H](CCC(N)=O)C(=O)N[C@@H](Cc1c[nH]cn1)C(=O)N[C@@H](Cc1c[nH]cn1)C(=O)N[C@@H](CC(C)C)C(=O)NCC(=O)NCC(=O)N[C@@H](C)C(=O)N[C@@H](CCCCN)C(=O)N[C@@H](CCC(N)=O)C(=O)N[C@@H](C)C(=O)NCC(=O)N[C@@H](CC(=O)O)C(=O)N[C@H](C(=O)O)C(C)C)[C@@H](C)CC)[C@@H](C)O)[C@@H](C)CC [D1 Peptide] (H-TRWYSMKKTTMKIIPFNRLTIGEGQQHHLGGAKQAGDV-OH)
binding to fibrinogen (fibrinogen): no measurable binding | number of binding sites for D1 Peptide (thrombin fibrin monomer): 1.82±0.26 | blood concentration causing a 50% increase in thrombin time (thrombin time): about 4.4×10^-6 M
